Tests used:
Assay type in all cases: cell-based, mouse
[1] = test system: CD44+ CD4+ T cells; experiment: ICS, ZIKV SD001-infected Ifnar1-/- HLA-DRB1*0101 mice; details: for cytokines produced by ZIKV-primed CD4+ T cells on peptide stimulation: ZIKV SD001, day 7
Protocol: Ifnar1^−/− HLA-DRB1*0101 mice were infected retro-orbitally with 1×10^2 FFU of ZIKV strain SD001 for 7 days. Splenocytes were stimulated in vitro with the indicated ZIKV-derived HLA-DRB1*0101-binding peptides for 6 h, and the frequency of CD44^+ CD4^+ T cells producing IFNγ, TNF, or IFNγ plus TNF (A), IL-2 (B), and IL-17 (C) were detected using the ICS assay. Data represent the mean±s.e.m. of four independent experiments (n=3-5 mice/experiment; total 16 mice). *P<0.05, **P<0.01, ***P<0.001, ****P<0.0001 by two-tailed Mann-Whitney test. Negative and positive refer to cells incubated alone or with PMA/ionomycin, respectively. […]
(§1) For the 30-peptide epitope screen, 5-week-old female or male mice were infected retro-orbitally (r.o.) with either 1×10^2 focus-forming units (FFU) of ZIKV SD001 or 2×10^3 FFU of DENV2 S221 in 200 μl of 10% fetal bovine serum in phosphate-buffered saline (FBS/PBS). Seven days after infection, spleens were removed and single-cell splenocyte suspensions were prepared. A total of 1×10^6 splenocytes was plated in each well of a 96-well U-bottom plate and stimulated with individual peptides (20 μg crude peptide per well) for 6 h. One hour into the incubation, brefeldin A (GolgiPlug, BD Biosciences) was added to the cells. Positive and negative controls were splenocytes stimulated with phorbol-12-myristate-13-acetate (PMA, 0.1 μg/ml) and ionomycin (1 μg/ml) or incubated alone, respectively.
(§2) After incubation of splenocytes with peptides or PMA/ionomycin, cells were harvested, washed, and incubated with Fc Block (CD16/CD32 mAb 2.4G2, BD Biosciences), followed by staining with fixable Live/Dead blue viability stain (Life technologies) and the following antibodies: PerCP-Cy5.5-conjugated anti-CD3 mAb (clone 145-2C11, Tonbo), APC-eFluor780-conjugated anti-CD4 mAb (clone GK1.5, Invitrogen), Brilliant Violet (BV) 785-conjugated anti-CD44 mAb (clone IMT, Biolegend), PE-conjugated anti-CD11a (clone M17/4, Biolegend), BV605-conjugated anti-CD49d (clone 9C10(MFR4.B, Biolegend), PE-conjugated anti-CD25 mAb (clone PC61, Biolegend), PE-conjugated or biotin-conjugated anti-CD185 mAb (CXCR5, clone SPRC15; Invitrogen), BV 605-conjugated anti-[…] mAb (PD1, clone 29F.1A12; Biolegend), and/or BV 421-conjugated streptavidin (#405225, Biolegend). Cells were then fixed and permeabilized using Cytofix/Cytoperm solution (BD Biosciences), followed by staining with FITC-conjugated anti-IFNγ mAb (clone XMG1.2, Tonbo), Alexa Fluor 700- or APC-conjugated anti-TNF mAb (clone MP6-XT22, eBioscience), PE-, BV 421-, or BV 711-conjugated anti-IL-2 mAb (clone JES6-5H4, Biolegend), APC-conjugated anti-IL-4 mAb (clone 11B11, Biolegend), PE-conjugated anti-IL-5 mAb (clone TRFK5, eBioscience), BV510-conjugated anti-IL-17A mAb (clone 17B7, eBioscience), and/or Alexa Fluor 700-conjugated anti-FoxP3 mAb (clone FJK-16S, eBioscience). Data were collected using an LSR Fortessa flow cytometer (BD Biosciences) and analyzed using FlowJo software X 10.0.7 (Tree Star).

[2] = test system: CD44+ CD4+ T cells; experiment: ICS, naive or DENV2-immune Ifnar1-/- HLA-DRB1*0101 mice challenged with ZIKV; details: for CD4+ T cell response to peptide: DENV2-immune mice; for CD4+ T cell response to peptide / expansion of peptide-reactive CD4+ T cells: day 7 after ZIKV challenge; for expansion of peptide-reactive CD4+ T cells: naive mice
Excerpt: Ifnar1−/−HLA-DRB1*0101 mice were primed intraperitoneally with 2×103 FFU of DENV2 S221 for 4 weeks. Naïve mice and DENV2-immune mice were challenged retro-orbitally with 1×10^4 FFU of ZIKV strain SD001 for 3 or 7 days. Splenocytes were stimulated in vitro with the indicated ZIKV-specific and DENV2/ZIKV-cross-reactive epitopes. The frequency of CD44+ CD4+ T cells producing IFNγ, IFNγ plus TNF, or IL-2 were detected using the ICS assay. (E) The combined data for positive peptide responses in (FIGS. 27A-27D). Numbers in parentheses indicate the number of positive peptides. Data represent the mean±s.e.m. of three or four independent experiments, with a total of 9 mice/group for A and C, 14/group for B, and 15/group for D. *P<0.05, **P<0.01, ***P<0.001, ****P<0.0001 by two-tailed Mann-Whitney test. Negative and positive refer to cells incubated alone or with PMA/ionomycin, respectively.
Five-week-old female or male mice were inoculated intraperitoneally (i.p.) with 2×10^3 FFU of DENV2 S221. […] Positive and negative controls were included in all experiments.
as §2

[3] = test system: CD44+ CD4+ T cells; experiment: ICS, DENV2 S221-infected Ifnar1-/- HLA-DRB1*0101 mice; details: for cross-reactive response by DENV2-primed CD4+ T cells / cytokines produced by DENV2-primed CD4+ T cells on peptide stimulation: DENV2 S221, day 7
Protocol: Ifnar1^−/− HLA-DRB1*0101 mice were infected intraperitoneally with 2×10^3 FFU of DENV2 strain […] for 7 days. Splenocytes were stimulated in vitro with the indicated ZIKV-derived HLA-DRB1*0101-binding peptides for 6 h. The frequency of CD44^+ CD4^+ T cells producing IFNγ, TNF, or IFNγ plus TNF (A) or IL-2 (B) were detected using the ICS assay. Data represent the mean±s.e.m. of three independent experiments (n=3-4 mice/experiment; total 10 mice). *P<0.05, **P<0.01, ***P<0.001, ****P<0.0001 by two-tailed Mann-Whitney test. Negative and positive refer to cells incubated alone or with PMA/ionomycin, respectively.
as §1, §2

[4] = 7 days after ZIKV SD001, 6 h stimulation
[5] = 7 days after DENV2 S221, 6 h stimulation

Sequence | % CD4+ CD44+ T cells (ZIKV) IL-2+ [1, 4] | % CD4+ CD44+ T cells (ZIKV) INFγ+ [1, 4] | % CD4+ CD44+ T cells (ZIKV) INFγ+ TNFα+ [1, 4] | cytokines produced by ZIKV-primed CD4+ T cells on peptide stimulation [1] | identification as Th1 epitope (IFNγ, TNF, IL-2 ICS) ([1]; ZIKV-primed CD4+ T cells) | CD4+ T cell response to peptide [2] | expansion of peptide-reactive CD4+ T cells [2] | % CD4+ CD44+ T cells (DENV) INFγ+ [3, 5] | % CD4+ CD44+ T cells (DENV) INFγ+ TNFα+ [3, 5] | % CD4+ CD44+ T cells (DENV) TNFα+ [3, 5] | cross-reactive response by DENV2-primed CD4+ T cells [3] | cytokines produced by DENV2-primed CD4+ T cells on peptide stimulation [3] | % CD4+ CD44+ T cells (ZIKV) TNFα+ [1, 4] | % CD4+ CD44+ T cells (DENV) IL-2+ [3, 5] | CD4+ T cell response (IFNγ, IL-2, IFNγ plus TNF) ([2]; DENV2-primed mice, day 3 after ZIKV challenge) | identification as Th17 epitope (IL-17 ICS) ([1]; ZIKV-primed CD4+ T cells)
FGGLKRLPAGLLLGH [C27-41] | 0.08% | 0.191% | 0.1% | stimulated IFNγ, TNF, and IL-2 production | Th1 epitopes | increased responses | significant expansion |  |  |  |  |  |  |  |  | 
LALIAAFKVRPALLV [NS2A66-80] |  | 0.167% | 0.058% | stimulated IFNγ plus TNF production | Th1 epitopes | increased responses | significant expansion | 0.39% | 0.343% | 0.199% | elicited cross-reactive responses | induced IFNγ-plus TNF-producing cells |  |  |  | 
GAAFKSLFGGMSWFS [E450-464] |  | 0.183% | 0.078% | stimulated IFNγ plus TNF production | Th1 epitopes | increased responses |  |  |  |  |  |  |  |  |  | 
RAIWYMWLGARFLEP [NS5222-236] | 0.21% | 0.607% | 0.333% | stimulated IFNγ, TNF, and IL-2 production | Th1 epitopes | increased responses | significant expansion | 0.82% | 1.451% | 0.8% | elicited cross-reactive responses | induced cells producing IFNγ, TNF, and IL-2 | 0.571% | 0.643% | strong response | 
IKKFKKDLAAMLRII [C81-95] |  | 0.19% |  | produce only IFNγ | Th1 epitopes |  | significant expansion |  |  |  |  |  |  |  |  | Th17 epitope
FLRFTAIKPSLGLIN [C53-67] |  | 0.265% |  | produce only IFNγ | Th1 epitopes | increased responses |  |  |  |  |  |  |  |  |  | 
GAAFGVMEALGTLPG [NS3601-NS4A12] |  | 0.203% | 0.102% | stimulated IFNγ plus TNF production | Th1 epitopes | increased responses | significant expansion |  |  |  |  |  |  |  |  | 

— patent US11806393B2, “Flavivirus peptide sequences, epitopes, and methods and uses thereof” (priority 2017, dated 2023)
